Entries after “also recorded” stand apart in the source; their conditions may differ.
Experiments:
[1] = test system: C57BL/6J mice; assay: Blood glucose level test in C57BL/6J mice; assay type: in vivo, mouse; details: 20 mg/kg oral, 12 h starved
Protocol: (§1) (A) DDN reduces blood glucose in C57BL/6J mice. […] Blood glucose was monitored before and after dosing at various time points as indicated (*: P<0.05, **: P<0.01; ***: P<0.001, n=10-13, Two-way ANOVA vs vehicle). (B) DDN provokes IR phosphorylation and its downstream signaling in C57BL/6J mice. Three month-old C57BL/6J mice were starved for 12 h and then orally administrated with vehicle (0.5% methylcellulose), DDN (20 mg/kg) or 2NH2-NQ (20 mg/kg). Cell lysates were prepared from liver and muscle tissues collected at 3, 4, and 5 h after drug administration and analyzed by immunoprecipitation and immunoblotting. (C) DDN quickly activates IR phosphorylation and its downstream signaling. Three-month-old C57BL/6J mice were starved for 12 h and then injected with vehicle, 5 mg/kg DDN or 5 mg/kg 2NH2-NQ through vena cava. After 5 min, the liver was collected and analyzed by immunobloting using specific antibodies.
(§2) (A) 4524-E7 provokes IR phosphorylation in various tissues of mice. Three-month-old C57BL/6J mice were starved for 12 h and then dosed with vehicle (0.5% methylcellulose) or 4524-E7 (20 mg/kg). Cell lysates from liver, muscle, and WAT were prepared at 3, 4, and 5 h after drug administration and analyzed by immunoblotting. (B) Basal and insulin-stimulated hepatic glucose production rates were measured by hyperinsulinemic-euglycemic clamp. […] (C) Hypoglycemic effect of 4524-E7 in C57BL/6J mice. C57BL/6J mice were starved for 12 h and then orally administrated with vehicle (0.5% methylcellulose) or 4524-E7 (5 mg/kg). Blood glucose was monitored at different time points as indicated (n=8, *: P<0.05, two-way ANOVA). (D) Hypoglycemic effect in db/db mice. db/db mice were starved for 12 h and then orally injected with vehicle (0.5% methylcellulose) or 4524-E7 (5 mg/kg). Blood glucose was monitored at different time points as indicated (n=5, *: P<0.05, two-way ANOVA). (E) Glucose tolerance test in ob/ob mice. The mice were starved for 12 hours and then orally administrated with vehicle or 4524-E7 (5 mg/kg). A bonus of glucose (2 gm/kg) was injected intraperitoneally 1 hour later. Blood glucose was then measured at 30 min intervals (n=13, *: P<0.05; **: P<0.01, two-way ANOVA).
After a 12 h fasting, C57B5L/6J and db/db mice were bled from the tail vein for a baseline measurement with a glucometer (Accu-Chek; Roche Diagnostics, Indianapolis, Ind.). Afterward, animals were orally administered 5 mg/kg compound in 0.5% methylcellulose through a feeding needle. Blood glucose levels were measured at hourly intervals over 5 h.

[2] = target: IR (Mus musculus, UniProt P15208); assay: IR phosphorylation and downstream signaling in mouse tissues; assay type: in vivo; details: C57BL/6J mice, 20 mg/kg oral
Protocol: as §1
Three-month-old mice were starved for 12 h and then orally administrated with vehicle (0.5% methylcellulose) or DDN (5 mg/kg). Cell lysates were prepared from liver and muscle tissues collected at 1 and 2 h after drug administration and analyzed by immunoprecipitation and immunoblotting. […] Three-month-old mice were starved for 12 h and then orally administrated with vehicle (0.5% methylcellulose) or DDN (5 mg/kg). Cell lysates were prepared from liver and muscle tissues collected at 1 and 2 h after drug administration and analyzed by immunoprecipitation and immunoblotting. (C) Hypoglycemic function of DDN in db/db mice. The animals were starved for 12 h and then orally injected with vehicle (0.5% methylcellulose) or DDN (5 mg/kg). […] Blood glucose was monitored before and after drug administration at 1-hour intervals (*: P<0.05, **: P<0.01, n=5, Two-way ANOVA vs vehicle). (D) DDN improves the glucose tolerance in ob/ob mice. The animals were starved for 12 h and then orally dosed with vehicle (0.5% methylcellulose) or DDN (5 mg/kg). […] A bonus of glucose (2 gm/kg) was injected intraperitoneally 1 hour later. Blood glucose was measured at 30-min intervals (*: P<0.05, **:P<0.01, n=5, Two-way ANOVA vs vehicle control).
as §2
After a 12 h fasting, C57BL/6J mice were orally administrated with 20 mg/kg of compound in 0.5% methylcellulose, and sacrificed at 3 h, 4 h and 5 h following compound administration. Fat tissues were dissected quickly and frozen on dry ice. Fat lysates were prepared and analyzed by Western blotting.

[3] = target: T1, GST-IRTK (Homo sapiens, UniProt P06213); assay: IR in vitro kinase assay (histone H2B phosphorylation); assay type: biochemical; details: different concentrations of compound
T1 construct: GST-tagged IRTK (GST-IRTK, a.a. 1011-1382); purchased Invitrogen
Protocol: Parental CHO cells were used as a negative control (bottom panel). The fluorescence-labeled cells were analyzed on flow cytometry. (B) DDN binds to IRTK. UV-visible spectra were scanned from 200 to 800 nm for IRTK fragment in the presence of DDN or its analogue. When DDN binds to IRTK, it elicits the absorption alteration at 560 and 602 nm. (C) DDN protects IRTK from proteolysis. GST-IRTK was subjected to limited trypsin digestion in the presence of DDN (50 μM), ATP-γ-S (5 μM) or both. The reaction mixture was resolved by SDS-PAGE, followed by silver staining (D) DDN increases IRTK activity in vitro.
Parental CHO cells were used as a negative control (Bottom panel). The fluorescence-labeled cells were analyzed on flow cytometry. (B) 4524-E7 protects IRTK from proteolysis. GST-IRTK was subjected to limited trypsin or chymotrypsin digestion in the presence of 4524-E7 (50 μM), ATPyS (5 μM) or both at 37° C. for 5 min. The reaction mixture was resolved by SDS-PAGE, followed by silver staining Cleaved fragments were asterisked. (C) 4524-E7 increases IRTK activity in vitro. Recombinant GST-IRTK, GST-IGFRTK, and GST-EGFRTK were incubated with different concentrations of 4524-E7 or 10 μM 2—NH2-NQ and the kinase activity was examined by monitoring the phosphorylation of histone H2B. (E) In vitro kinase activity of various IRTK/IGF-1R kinase hybrids. The GFP-tagged kinases were expressed in HEK293, immunoprecipitated and incubated with different concentrations of 4524-E7 as indicated. […] Expressions of the kinases were also verified (lower panel).
Recombinant GST-IRTK was incubate with 50 mM tris-HCl (pH7.4), 10 mM MgCl2, and 50 μM ATP with different concentration of compound for 15 min at 25° C. Histone H2B (0.35 μg/ml) and [γ32P]ATP (0.25 μCi/ul) were added and the samples were further incubated for 10 min. The sample was separated on a SDS-polyacrylamide gel and autoradiographed.

[4] = target: T2, IR (Homo sapiens, UniProt P06213); assay: Cell-based ELISA of IR tyrosine phosphorylation in CHO-IR cells; design: expressed in transfected cells; host or cells: CHO (CHO-IR, gift from Dr. Nicholas Webster, UCSD); details: 5 μM, ELISA
Protocol: A cell-based screening assay was developed with Chinese hamster ovary cells stably transfected with IR (CHO-IR) by using an ELISA to determine the IR tyrosine phosphorylation. […] Other 1,4-Napthoquinones that are structurally related to 4524-E7 were evaluated.
CHO-IR cells were seeded in a 96-well plate at 15,000 cells per well in […] of 0.1% FBS medium with 0.1% FBS. […] Cells were lysed, and phosphorylated receptors were captured with pY20 immobilized on ELISA plates. Bound receptors were washed, then detected using an anti-IR beta antibody, followed by an horseradish peroxidase-conjugated secondary antibody and colorimetric detection with 3,3′,5,5′-tetramethylbenzidine.
(§3) A cell-based ELISA assay was developed with an IR stably transfected Chinese Hamster Ovary (CHO-IR) cell line. […] The cell lysates were subjected to the sandwich ELISA using immobilized anti-phosphotyrosine antibody and anti-IR antibody.

[5] = target: T1, GST-IRTK; assay: Partial proteolysis; assay type: binding; details: compound 50 μM or ATP-γ-S 5 μM; limited trypsin (or chymotrypsin) digestion
Protocol: 200 ng GST-IRTK was subjected to limited trypsin digestion in the presence or absence of 50 μM compound with 50 mM tris-HCL (pH8.2) and 20 mM CacCl2. The sample was separated on a SDS-polyacrylamide gel and stained by silver.
Several small molecules bind to the intracellular kinase domain of IR (IRTK) and provoke its activation. DDN might also interact with the IRTK to activate IR. To test this possibility, an UV-absorption spectra analysis was performed using recombinant IRTK. While the GST-tagged IRTK (GST-IRTK, a.a. 1011-1382) had no absorption from 200 nm to 800 nm, addition of DDN, but not its structural related analogue naptho[2,3-d]thiazole-4,9-dione-2-[(4-chlorophenyl)amino] […] Partial proteolysis analysis was also performed to confirm the DDN/IRTK interaction. Recombinant GST-tagged IRTK was incubated with either DMSO or DDN, followed by limited trypsin digestions. In DMSO treatment, GST-IRTK was digested into several smaller fragments of various molecular weights. […] Whereas a band of ˜37 kDa presented strongly in the ATP-γ-S incubated IRTK, a band of ˜30 kDa was found in the control samples but attenuated in the ATP-γ-S-treated sample.
To evaluate if 4524-E7 directly binds to the IR kinase domain, a partial proteolysis assay was performed with recombinant IRTK domain using trypsin or chymotrypsin, which was used before to characterize the interaction between IR and its small molecular ligand DAQ B1. Recombinant GST-tagged IRTK with either DMSO, 50 μM 4524-E7 or ATP-γ-S, were incubated and followed by limited trypsin or chymotrypsin digestion. Under DMSO treatment, GST-IRTK was quickly digested by both trypsin and chymotrypsin into several small fragments with various molecular weights (FIG. 10B). […] To test whether 4524-E7 selectively elevates IR kinase activities, an in vitro IR, IGFR, and EGFR kinase assays were performed using histone as the substrate.

[6] = target: T2, IR; assay: Immunoblotting of IR phosphorylation and downstream signaling in CHO-IR cells; assay type: cell-based; design: expressed in transfected cells; host or cells: CHO (CHO-IR, gift from Dr. Nicholas Webster, UCSD); details: 5 μM, 30 min
Protocol: The cell lysates were analyzed by immunoblotting with anti-phospho-IR antibodies, or immunoprecipitated by PY20 and analyzed using anti-IR and anti-IRS-1, respectively. […] The cell lysates were analyzed by immunoblotting with anti-pIGF-1R and anti-pEGFR. […]
as §3

T1 sequence (P06213 1011-1382): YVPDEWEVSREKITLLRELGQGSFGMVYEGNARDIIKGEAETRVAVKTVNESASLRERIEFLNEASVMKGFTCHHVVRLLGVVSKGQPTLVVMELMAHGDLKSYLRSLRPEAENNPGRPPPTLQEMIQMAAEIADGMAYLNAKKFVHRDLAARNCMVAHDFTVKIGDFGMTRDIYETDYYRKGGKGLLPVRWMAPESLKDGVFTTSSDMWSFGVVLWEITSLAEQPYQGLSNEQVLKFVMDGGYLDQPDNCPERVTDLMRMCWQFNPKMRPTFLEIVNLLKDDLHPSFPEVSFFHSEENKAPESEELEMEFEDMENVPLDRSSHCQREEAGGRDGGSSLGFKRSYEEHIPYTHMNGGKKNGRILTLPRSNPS
T2 sequence (P06213 763-1382 limits assumed): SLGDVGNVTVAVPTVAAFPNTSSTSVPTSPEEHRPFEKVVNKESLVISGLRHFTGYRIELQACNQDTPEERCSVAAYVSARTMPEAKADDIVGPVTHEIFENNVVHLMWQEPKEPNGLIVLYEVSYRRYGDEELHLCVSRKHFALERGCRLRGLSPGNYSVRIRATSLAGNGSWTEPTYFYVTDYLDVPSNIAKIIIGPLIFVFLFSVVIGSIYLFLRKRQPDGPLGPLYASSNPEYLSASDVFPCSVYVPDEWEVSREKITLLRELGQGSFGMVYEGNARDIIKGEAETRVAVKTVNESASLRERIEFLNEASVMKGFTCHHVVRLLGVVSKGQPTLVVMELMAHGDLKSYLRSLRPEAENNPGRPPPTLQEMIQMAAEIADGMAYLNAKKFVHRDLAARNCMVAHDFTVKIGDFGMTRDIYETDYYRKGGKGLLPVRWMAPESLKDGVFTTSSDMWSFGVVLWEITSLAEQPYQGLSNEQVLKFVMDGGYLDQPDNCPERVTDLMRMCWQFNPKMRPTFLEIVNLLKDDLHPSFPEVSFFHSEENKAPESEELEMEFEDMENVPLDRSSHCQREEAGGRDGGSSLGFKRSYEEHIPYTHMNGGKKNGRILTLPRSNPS
T2 sequence (P06213 28-758 limits assumed): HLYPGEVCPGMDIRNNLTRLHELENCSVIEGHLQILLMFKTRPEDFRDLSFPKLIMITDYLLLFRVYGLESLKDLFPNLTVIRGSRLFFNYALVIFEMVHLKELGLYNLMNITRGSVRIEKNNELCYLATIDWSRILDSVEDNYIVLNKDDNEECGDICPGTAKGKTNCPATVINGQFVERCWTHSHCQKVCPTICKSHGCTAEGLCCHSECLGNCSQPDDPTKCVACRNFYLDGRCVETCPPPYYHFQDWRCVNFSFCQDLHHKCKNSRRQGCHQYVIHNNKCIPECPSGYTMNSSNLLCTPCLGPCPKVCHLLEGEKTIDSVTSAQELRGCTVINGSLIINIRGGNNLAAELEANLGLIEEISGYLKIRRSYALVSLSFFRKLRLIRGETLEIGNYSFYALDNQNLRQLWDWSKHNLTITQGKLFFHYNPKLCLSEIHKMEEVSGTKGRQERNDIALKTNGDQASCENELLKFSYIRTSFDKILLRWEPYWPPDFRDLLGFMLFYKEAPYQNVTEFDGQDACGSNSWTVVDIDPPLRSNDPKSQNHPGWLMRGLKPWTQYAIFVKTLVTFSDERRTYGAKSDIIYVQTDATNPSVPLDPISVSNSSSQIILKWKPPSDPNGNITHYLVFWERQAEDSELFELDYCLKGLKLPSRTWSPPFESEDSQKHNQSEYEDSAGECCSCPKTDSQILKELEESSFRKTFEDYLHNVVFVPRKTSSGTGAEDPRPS
Chain of IR (Mus musculus, UniProt P15208) (P15208 28-1372): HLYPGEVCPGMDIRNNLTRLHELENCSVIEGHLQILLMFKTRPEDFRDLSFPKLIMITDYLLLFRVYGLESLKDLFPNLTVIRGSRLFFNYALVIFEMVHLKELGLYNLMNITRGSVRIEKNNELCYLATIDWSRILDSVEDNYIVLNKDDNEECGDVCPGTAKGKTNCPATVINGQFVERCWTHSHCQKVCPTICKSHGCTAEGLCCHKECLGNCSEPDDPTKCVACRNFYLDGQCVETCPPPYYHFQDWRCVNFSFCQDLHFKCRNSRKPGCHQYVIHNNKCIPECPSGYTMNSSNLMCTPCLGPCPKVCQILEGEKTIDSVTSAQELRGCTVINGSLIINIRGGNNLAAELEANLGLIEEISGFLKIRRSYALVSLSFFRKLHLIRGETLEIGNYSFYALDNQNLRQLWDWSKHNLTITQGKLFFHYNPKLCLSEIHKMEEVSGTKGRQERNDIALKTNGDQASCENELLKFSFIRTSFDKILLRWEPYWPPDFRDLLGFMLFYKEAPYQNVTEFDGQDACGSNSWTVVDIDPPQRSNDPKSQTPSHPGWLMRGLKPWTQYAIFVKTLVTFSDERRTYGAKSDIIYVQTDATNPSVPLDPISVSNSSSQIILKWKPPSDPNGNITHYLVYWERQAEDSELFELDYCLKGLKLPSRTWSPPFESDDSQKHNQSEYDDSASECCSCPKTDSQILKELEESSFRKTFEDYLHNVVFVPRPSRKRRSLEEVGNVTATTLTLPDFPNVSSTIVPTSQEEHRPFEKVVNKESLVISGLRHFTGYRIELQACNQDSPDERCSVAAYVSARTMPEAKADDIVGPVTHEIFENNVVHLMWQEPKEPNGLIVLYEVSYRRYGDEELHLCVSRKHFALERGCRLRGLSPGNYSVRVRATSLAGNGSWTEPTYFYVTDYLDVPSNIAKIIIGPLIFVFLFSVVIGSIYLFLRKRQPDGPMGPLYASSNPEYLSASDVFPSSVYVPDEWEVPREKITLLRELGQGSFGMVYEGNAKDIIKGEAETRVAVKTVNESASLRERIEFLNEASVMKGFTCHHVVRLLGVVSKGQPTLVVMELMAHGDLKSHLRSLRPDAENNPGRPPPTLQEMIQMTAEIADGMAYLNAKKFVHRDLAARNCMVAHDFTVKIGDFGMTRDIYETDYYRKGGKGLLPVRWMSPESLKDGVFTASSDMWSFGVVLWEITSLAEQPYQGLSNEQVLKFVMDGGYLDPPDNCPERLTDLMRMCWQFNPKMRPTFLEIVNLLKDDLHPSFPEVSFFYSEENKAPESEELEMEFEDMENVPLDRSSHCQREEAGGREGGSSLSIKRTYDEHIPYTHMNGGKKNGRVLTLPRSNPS

## NC1=CC(=O)c2ccccc2C1=O [2NH2-NQ, 2-amino-1,4-naphthoquinone, reference compound]
[1]
  blood glucose as compared to vehicle control: had no effect
[2]
  IR and IRS-1 tyrosine phosphorylation in liver and muscle: Neither IR nor IRS phosphorylations were increased
[3]
  IRTK kinase activity (histone H2B phosphorylation): inactive analogue
[4]; 15 min, CHO-IR cells
  IR phosphorylation: not active

## Nc1ncnc2c1ncn2[C@@H]1O[C@H](COP(=O)(O)OP(=O)(O)OP(O)(O)=S)[C@@H](O)[C@H]1O [ATP-γ-S, reference compound]
[5]
  protection of IRTK from proteolysis: altered the proteolysis pattern; also recorded: digestion pattern was altered

## O=C1c2ccccc2C(=O)c2sc(Nc3ccc(Cl)cc3Cl)nc21 [compound 7, 2-((2,4-dichlorophenyl)amino)naphtho[2,3-d]thiazole-4,9-dione]
[6]
  IR tyrosine phosphorylation: triggered IR tyrosine phosphorylation
[4]; 30 min, compared to the parental compound
  IR phosphorylation, 4524-E7 derivatives: improved activity
